From patent US20250011316A1, “PEROXIREDOXIN 3 INHIBITORS AND METHODS OF USE FOR TREATING CANCER” (Wake Forest University Health Sciences, priority 2022, published 2025)
In brackets after ≈: the same amount, converted by molar mass. Counter-ions that a name gives are not always drawn. Each block holds one compound with its values, some of them ahead of it.

Key:
[1] = target: T1, PRX3 (Homo sapiens, UniProt P30048); test: Crosslinking study: PRX3 western blot of H-MESO cell lysates; assay type: cell-based; details: H-MESO cells treated 24 hours; TS at 2.5 or 5 μM; reducing SDS-PAGE, PRX3 western blot (FIG. 3)
T1 construct: endogenous in cells; host or cells: H-MESO malignant mesothelioma cells
T1 sequence (P30048 62-256): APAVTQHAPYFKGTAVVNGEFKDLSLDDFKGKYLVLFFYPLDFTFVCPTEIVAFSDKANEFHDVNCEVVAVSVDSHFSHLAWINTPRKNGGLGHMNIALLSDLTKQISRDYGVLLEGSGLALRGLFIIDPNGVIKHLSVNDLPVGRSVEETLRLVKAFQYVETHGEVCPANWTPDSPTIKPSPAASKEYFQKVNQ
Method: Malignant Mesothelioma (MM) cells (H-MESO cell line) were plated into 6-well plates in complete tissue culture media. Cells were allowed to adhere for 24 hours before being treated with indicated concentrations of thiostrepton (TS), (1) or (5) (DMSO Stocks) for 24 hours. Cell lysates were generated using standard RIPA buffer, protein concentrations were determined using a Bradford Assay and 20 μg of total protein per sample were separated by reducing SDS-Polyacrylamide Gel Electrophoresis. Proteins were transferred to a PVDF membrane, blocked with 5% Bovine Serum Albumin (BSA) for 1 hour and incubated with PRX3 primary antibody overnight at 4° C. in IX Tris Buffered Saline with Tween (TBST). Membranes were washed 3X with IX TBST and incubated with horseradish peroxidase conjugated (HRP) secondary antibody for 1 hour at room temperature. Membranes were washed 3x in IX TBST and HRP signal was developed using Enhanced Chemiluminescence and visualized on a GE digital imager.

[2] = test system: HMESO mesothelioma cells; test: Cell viability study (crystal violet, 48 h); assay type: cell-based; details: Homo sapiens, 48 h incubation, read-out: IC50 (Concentration of drug required to kill 50% of cells)
Method: Cell Lines were plated in 96-well plates (Corning, Kennebunk, ME, USA) at a density of 2500 cells per well. The following day, cells were treated with test compounds diluted in complete media followed by incubation for 48 h. Post-incubation cells were washed with PBS (Corning Cellgro, Manassas, VA, USA), fixed with 3.0% formaldehyde (Fisher BioReagents, Fair Lawn, NJ, USA) in PBS, and stained for 30 min with 0.1% crystal violet (Acros Organics, Fair Lawn, NJ, USA) in water. Crystal violet stain was removed, and plates were washed with FEO and allowed to dry. To quantify cell viability, plates were imaged using the Lionheart Plate reader (BioTek Instruments, Winooski, VT, USA) and/or analyzed by absorbance at 540 nm (crystal violet dye dissolved in 100% methanol) using the Synergy HTX plate reader (BioTek Instruments, Winooski, VT, USA). To determine the effective cytotoxic concentration (ICso) of test compounds, the data were plotted using a 4-parameter non-linear regression model using GraphPad Prism7 software (GraphPad Software, San Diego, CA, USA).
Cell viability assay data in HMESO mesothelioma cells treated with compounds (1)—HCl or (5) HCl are summarized in the below Table 2. ICso (Concentration of drug required to kill 50% f cells) is shown in […] concentration

[3] = Behaviour of compounds in DMSO and complete tissue culture media (HMESO cell viability assay, FIG. 1); assay type: physicochemical; details: from DMSO solution
Method: FIG. 1: Cell viability assay data in Malignant Mesothelioma (MM) cells (HMESO cell line) treated with compound (1)—HCl or (5)—HCl N=2 technical and 2 biological replicates conducted by 2 different lab technicians. All compounds went into solution in 100% DMSO. (5)—HCl precipitated at concentrations of ˜20-80 μM when added to complete tissue culture media.

[4] = Solubility Assay (HPLC); assay type: physicochemical; details: HEPES/NaCl buffer, aqueous with cosolvent or surfactant or cyclodextrin, kinetic from dmso stock; 20 mM HEPES, 100 mM NaCl, pH 7.5, 18-24 hours at ambient temperature; read-out: Solubility
How it was run: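 Compound from 20 mM DMSO stock added to 20 mM HEPES, 100 mM NaCl, pH 7.5, rotated 18-24 h at ambient temperature, then centrifuged 10 min at 20,000×g to remove solids. Supernatant diluted in DMSO and quantified by HPLC peak area against the closest of 200 μM and 20 μM standards, corrected for dilution.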

[5] = target: T2, purified human PRX3 (Homo sapiens, UniProt P30048); test: Biochemical PRX3 Inhibition Assay (non-reducible crosslink by SDS PAGE + single adduct by MALDI-TOF MS); details: 100 μM PRX3 with TRX2/thioredoxin reductase/NADPH system and hydrogen peroxide, 1-2 hr at 37° C.
T2 construct: made in house
T2 sequence (P30048 62-256): T1 sequence (P30048 62-256)
How it was run: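 Purified human PRX3 (100 µM) cycled with TRX2, thioredoxin reductase, NADPH regenerating system and H2O2, incubated with compound 1–2 h at 37 °C. Non-reducible crosslink quantified by densitometry of SDS-PAGE (~46 vs ~23 kDa) after DTT; single-adduct fraction from MALDI-TOF MS peak intensities, background-corrected against DMSO.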

[6] = test system: human SK—OV-3 ovarian cancer cells; test: Cellular Activity Assay (cytotoxicity, crystal violet); assay type: cell-based; details: Homo sapiens; SK—OV-3 cells, treated for 48 hr, 0.1-100 μM, crystal violet absorbance at 540 nm
How it was run: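 SK-OV-3 cells plated, allowed 24 h recovery, then treated 48 hr with compound at 0.1-100 μM. Live cells were fixed (3.0% formaldehyde), stained with 0.1% crystal violet and read at 540 nm. EC50 was fitted after normalizing to matched-DMSO controls.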

[7] = test system: Enterococcus hirae (ATCC #10541); test: Antimicrobial Activity Assay (MIC / growth inhibition); assay type: cell-based; details: for MIC: ATCC10541, Enterococcus hirae, analogs tested at 20 μM final concentration
Method: The overnight growth was then diluted into growth media to make a single solution of E. hirae with a final optical density at 600 nm=0.02 AU. A 20 mM stock solution of Thiostrepton in DMSO was made and used to make multiple dilutions of TS in DMSO. Each TS dilution (0.1 mL) was then added to a test tube containing 10 mL of the diluted E. hirae and grown at 37° C. overnight while shaking at 180 rpm. The next morning, each tube was visually inspected to determine if the cells grew. Final concentrations tested were 0.120, 0.090, 0.075, 0.060, 0.045, 0.030, and 0.015 μM TS. […] Three replicates were made on three separate days (n=9). […] For TS analogs, the dilute E. hirae was treated with 20 μM final concentration of each analog (three replicates each). […] DMSO was used as a positive control (complete cell growth) and 20 μM thiostrepton was used as a negative control.

[8] = test system: 578 cancer cells lines; details: of 578 cancer cells lines tested; Corsello et al. Nature Cancer 2020; cited from earlier work
[9] = FIG. 5 (CON'T)
Method: (§1) Table printed on a drawing sheet, FIG. 5 (CON'T)
(§2) The patent's description of the figure: FIG. 5 is a table summarizing the results of Examples 42-44 for various compounds described herein. NT indicates “not tested.” For EC50 values, “A” represents an EC50 less than or equal to 5.0 μM, “B” represents an EC50 from 5.1 μM to 10.0 μM, “C” represents an EC50 from 10.1 μM to 50.0 μM, and “D” represents an EC50 greater than 50.0 μM.
First reader's note: Continued from the sheet before: the first body row is the end of a record begun there; EC50 is given as classes A-D whose legend is not printed on this sheet.

[10] = FIG. 5 (CON’T)
Method: (§3) Table printed on a drawing sheet, FIG. 5 (CON’T)
as §2

[11] = FIG. 5 (CON’T); remark: listed apart in the source
Method: as §3, §2
First reader's note: Continued from an earlier sheet of FIG. 5; the EC50 classes A-D and NT are not explained on this sheet but only in the patent's figure description.

[12] = FIG. 5 (CON'T); remark: listed apart in the source
Method: as §1, §2
First reader's note: Continued from an earlier sheet of FIG. 5; EC50 is given as classes A-C, and neither these classes nor NT are explained on this sheet.

[13] = E. hirae, overnight at 37° C., MIC determination, n=9

Structure (SMILES): C=C(NC(=O)C(=C)NC(=O)c1csc(-c2ccc(N)cc2)n1)C(N)=O [(1), N-(3-((3-amino-3-oxoprop-1-en-2-yl)amino)-3-oxoprop-1-en-2-yl)-2-(4-aminophenyl)thiazole-4-carboxamide]
Covalent PRX3 crosslinking (PRX3-X-PRX3) [1]: No PRX3 —X —PRX3 crosslinking was observed

Structure (SMILES): C=C(NC(=O)C(=C)NC(=O)c1csc(-c2ccc(N)cc2)n1)C(N)=O [(1)-HC1, N-(3-((3-amino-3-oxoprop-1-en-2-yl)amino)-3-oxoprop-1-en-2-yl)-2-(4-aminophenyl)thiazole-4-carboxamide hydrochloride]
IC50 [2]: 748 µM

Structure (SMILES): C=C(NC(=O)c1csc(-c2ccc(N)cc2)n1)C(=O)NC(=C)C(=O)OC [(5)—HCl, Methyl 2-(2-(2-(4-aminophenyl)thiazole-4-carboxamido)acrylamido)acrylate hydrochloride]
concentrations at which compound precipitated when added to complete tissue culture media [3]: 20 to 80 µM | IC50 [2]: 1.93 µM

Structure (SMILES): C=C(NC(=O)c1csc(N2CCC(COC(=O)NCCCOC)CC2)n1)C(=O)NC(=C)C(=O)OC [Compound 32, Methyl 2-(2-(2-(4-((((3-methoxypropyl)carbamoyl)oxy)methyl)piperidin-1-yl)thiazole-4-carboxamido)acrylamido)acrylate]
solubility [4]: 100 to 1000 µM (≈ 51 to 510 µg/mL) | PRX3 Inhibition (Crosslink + Mono-adduct) [5]: ++ (50-90%) | EC50 [6]: 25 to 100 µM | MIC [7]: > 20 µM

Structure (SMILES): C=C(NC(=O)c1csc(N2CCC(NC(=O)COCCOC)CC2)n1)C(=O)NC(=C)C(=O)OC [Compound 34, Methyl 2-(2-(2-(4-(2-(2-methoxyethoxy)acetamido)piperidin-1-yl)thiazole-4-carboxamido)acrylamido)acrylate]
solubility [4]: > 1000 µM | PRX3 Inhibition (Crosslink + Mono-adduct) [5]: +++ (>90%) | EC50 [6]: 1 to 10 µM | MIC [7]: > 20 µM

Structure (SMILES): C=C(NC(=O)C(=C)NC(=O)c1csc(C2=N[C@@H]3c4csc(n4)[C@H]4NC(=O)c5csc(n5)[C@H]([C@](C)(O)[C@@H](C)O)NC(=O)[C@H]5CSC(=N5)/C(=C/C)NC(=O)[C@H]([C@@H](C)O)NC(=O)c5csc(n5)[C@]3(CC2)NC(=O)[C@H](C)NC(=O)C(=C)NC(=O)[C@H](C)NC(=O)[C@H]([C@@H](C)CC)N[C@@H]2C=Cc3c([C@H](C)O)cc(nc3[C@H]2O)C(=O)O[C@@H]4C)n1)C(N)=O [TS, Thiostrepton, reference compound]
Covalent PRX3 crosslinking (PRX3-X-PRX3) [1]: resulted in covalent PRX3 crosslinking | TS concentrations at which complete growth was observed [7, 13]: < 0.030 µM | TS concentrations at which no growth was observed [7, 13]: > 0.045 µM | IC50 [2]: 1.01 µM

Structure (SMILES): C=C(NC(=O)C(=C)NC(=O)c1csc(C2=N[C@@H]3c4csc(n4)[C@H]4NC(=O)c5csc(n5)[C@H]([C@](C)(O)[C@@H](C)O)NC(=O)[C@H]5CSC(=N5)/C(=C/C)NC(=O)[C@H]([C@@H](C)O)NC(=O)c5csc(n5)[C@]3(CC2)NC(=O)[C@H](C)NC(=O)C(=C)NC(=O)[C@H](C)NC(=O)[C@H]([C@@H](C)CC)N[C@@H]2C=Cc3c([C@H](C)O)cc(nc3[C@H]2O)C(=O)O[C@@H]4C)n1)C(N)=O [Thiostrepton, thiostrepton]
number of tumor cells lines in which meaningful efficacy was shown [8]: 403

Structure (SMILES): C=C(NC(=O)c1csc(N2CCN(CCCOC)C(=O)C2)n1)C(=O)NC(=C)C(=O)OC [compound 63]
Time into solution from powder? [11]: 1 to 2 min

More lines, main results first:

Covalent PRX3 crosslinking (PRX3-X-PRX3) [1]: Similar, yet less robust
Structure (SMILES): C=C(NC(=O)c1csc(-c2ccc(N)cc2)n1)C(=O)NC(=C)C(=O)OC [(5), Methyl 2-(2-(2-(4-aminophenyl)thiazole-4-carboxamido)acrylamido)acrylate]

solubility [4]: > 1000 µM | PRX3 Inhibition (Crosslink + Mono-adduct) [5]: + (5-50%) | MIC [7]: > 20 µM
Structure (SMILES): C=C(NC(=O)c1csc(N2CCC[C@@H](NC(=O)OCCOC)C2)n1)C(=O)NC(=C)C(=O)OC [Compound 31, Methyl (R)-2-(2-(2-(3-(((2-methoxyethoxy)carbonyl)amino)piperidin-1-yl)thiazole-4-carboxamido)acrylamido)acrylate]
EC50 [6]: 25 to 100 µM

solubility [4]: > 1000 µM | PRX3 Inhibition (Crosslink + Mono-adduct) [5]: +++ (>90%) | MIC [7]: > 20 µM
Structure (SMILES): C=C(NC(=O)c1csc(N2CCC(NC(=O)OCCOC)CC2)n1)C(=O)NC(=C)C(=O)OC [Compound 33, Methyl 2-(2-(2-(4-(((2-methoxyethoxy)carbonyl)amino)piperidin-1-yl)thiazole-4-carboxamido)acrylamido)acrylate]
EC50 [6]: 25 to 100 µM

Time into solution from powder? [9]: 1 to 2 min
Structure (SMILES): C=C(NC(=O)c1csc(N2C[C@@H](C)N(C(=O)OC(C)(C)C)[C@@H](C)C2)n1)C(=O)NC(=C)C(=O)OC [compound 56]

Time into solution from powder? [10]: 1 to 2 min
Structure (SMILES): C=C(NC(=O)c1csc(N2CCC(C(=O)NCCCOC)CC2)n1)C(=O)NC(=C)C(=O)OC [compound 61]

Time into solution from powder? [12]: 1 to 2 min
Structure (SMILES): C=C(NC(=O)c1ccc(-c2ccc(NC(=O)OC(C)(C)C)cc2)cc1)C(=O)NC(=C)C(=O)OC [compound 69]
